Source: article PMC5843811, “^44Sc for labeling of DOTA- and NODAGA-functionalized peptides: preclinical in vitro and in vivo investigations” (EJNMMI Radiopharmacy and Chemistry, 2016)
Like-named read-outs stand apart in the source and are kept apart here.

What was measured:
[1] = Biodistribution in U87MG tumor-bearing mice; format: in vivo; conditions: female, CD-1 nude (athymic nude), mouse, iv, total radioactivity, i.v. ~5 MBq (~1 nmol), mean ± SD; for tissue to tissue ratio at 0.5 h / tissue uptake at 0.5 h: 30 min p.i.; for tissue to tissue ratio at 5 h / tissue uptake at 5 h: 5 h p.i.
Method: Female athymic nude mice (CD-1 nude), age 5–6 weeks, were obtained from Charles River Laboratories, Sulzfeld, Germany. U87MG cells and AR42J-cells were suspended in PBS (5 × 10^6 cells in 100 μL) and subcutaneously inoculated on each shoulder. Two to three weeks later, when the tumor reached a size of about 300–500 mm^3, the mice were used for the in vivo studies.
Biodistribution studies were performed with U87MG tumor and AR42J tumor-bearing mice 2 weeks after tumor cell inoculation. ^44Sc- and ^68Ga-labeled peptides (~5 MBq, ~1 nmol per mouse) were intravenously injected in a volume of 100–200 μL. Mice were sacrificed at 30 min, 2 h and 5 h after injection (p.i.) of the ^44Sc-labeled peptides. Mice which were injected with ^68Ga-labeled peptides were sacrificed at 30 min and 2 h p.i. Selected tissues and organs were collected, weighed, and counted for radioactivity using a γ-counter (Wallac Wizard 1480, Perkin Elmer). The results were listed as a percentage of the injected activity per gram of tissue mass (% IA/g), using counts of a defined volume of the original injection solution counted at the same time. The data were analyzed for significance using a two-way ANOVA test (Graph Pad Prism 6 software, version 6.05). A p-value of < 0.05 was considered statistically significant.

[2] = test system: U87MG tumor-bearing mice; experiment: PET/CT imaging of U87MG tumor-bearing mice; format: in vivo; conditions: 3 h after i.v. injection of ~10 MBq (~1 nmol), one or two mice
Method: The energy window was set to 150–650 keV. […] All static PET scans lasted for 20 min.

[3] = U87MG tumor / blood, n=3, read-out: Tumor-to-blood ratio
[4] = U87MG tumor / kidneys, n=3, read-out: Tumor-to-kidney ratio
[5] = U87MG tumor / liver, n=3, read-out: Tumor-to-liver ratio
[6] = U87MG tumor, n=3, read-out: Biodistribution, U87MG Tumor
[7] = blood, 5 MBq per mouse, n=3, read-out: Biodistribution, Blood
[8] = bone, 5 MBq per mouse, n=3, read-out: Biodistribution, Bone
[9] = brain, 5 MBq per mouse, n=3, read-out: Biodistribution, Brain
[10] = heart, 5 MBq per mouse, n=3, read-out: Biodistribution, Heart
[11] = intestines, 5 MBq per mouse, n=3, read-out: Biodistribution, Intestines
[12] = kidneys, n=3, read-out: Biodistribution, Kidneys
[13] = liver, n=3, read-out: Biodistribution, Liver
[14] = lung, 5 MBq per mouse, n=3, read-out: Biodistribution, Lung
[15] = muscle, 5 MBq per mouse, n=3, read-out: Biodistribution, Muscle
[16] = skin, 5 MBq per mouse, n=3, read-out: Biodistribution, Skin
[17] = spleen, 5 MBq per mouse, n=3, read-out: Biodistribution, Spleen
[18] = stomach, 5 MBq per mouse, n=3, read-out: Biodistribution, Stomach

tissue to tissue ratio at 0.5 h [1, 3]: 4.73 ± 1.24 | tissue to tissue ratio at 5 h [1, 3]: 30.5 ± 9.93 | tissue to tissue ratio at 0.5 h [1, 4]: 1.18 ± 0.28 | tissue to tissue ratio at 2 h ([1]; U87MG tumor / kidneys, 2 h p.i., n=3, read-out: Tumor-to-kidney ratio): 2.68 ± 0.14 | tissue to tissue ratio at 5 h [1, 4]: 2.58 ± 0.24 | tissue to tissue ratio at 0.5 h [1, 5]: 3.02 ± 0.4 | tissue to tissue ratio at 5 h [1, 5]: 2.82 ± 0.21 | tissue uptake at 0.5 h [1, 6]: 4.5 ± 0.77 %ID/g | tissue uptake at 5 h [1, 6]: 3.01 ± 0.55 %ID/g | tissue uptake at 0.5 h [1, 7]: 0.98 ± 0.21 %ID/g | tissue uptake at 5 h [1, 7]: 0.11 ± 0.07 %ID/g | tissue uptake at 0.5 h [1, 8]: 1.53 ± 0.16 %ID/g | tissue uptake at 5 h [1, 8]: 0.76 ± 0.03 %ID/g | tissue uptake at 0.5 h [1, 9]: 0.1 ± 0.01 %ID/g | tissue uptake at 5 h [1, 9]: 0.06 ± 0.01 %ID/g | tissue uptake at 0.5 h [1, 10]: 0.89 ± 0.13 %ID/g | tissue uptake at 2 h ([1]; heart, 5 MBq per mouse, 2 h p.i., n=3, read-out: Biodistribution, Heart): 0.44 ± 0.04 %ID/g | tissue uptake at 5 h [1, 10]: 0.35 ± 0.13 %ID/g | tissue uptake at 0.5 h [1, 11]: 1.76 ± 0.22 %ID/g | tissue uptake at 2 h ([1]; intestines, 5 MBq per mouse, 2 h p.i., n=3, read-out: Biodistribution, Intestines): 0.91 ± 0.16 %ID/g | tissue uptake at 5 h [1, 11]: 0.75 ± 0.13 %ID/g | tissue uptake at 2 h ([1]; kidneys, 5 MBq per mouse, 2 h p.i., n=3, read-out: Biodistribution, Kidneys): 1.5 ± 0.3 %ID/g | tissue uptake at 0.5 h [1, 12]: 3.89 ± 0.68 %ID/g | tissue uptake at 5 h [1, 12]: < 2 %ID/g | tissue uptake at 0.5 h [1, 13]: 1.49 ± 0.06 %ID/g | tissue uptake at 2 h ([1]; liver, 2 h p.i., n=3, read-out: Biodistribution, Liver): 1.34 ± 0.27 %ID/g | tissue uptake at 5 h [1, 13]: ~1 %ID/g | tissue uptake at 0.5 h [1, 14]: 2.2 ± 0.68 %ID/g | tissue uptake at 5 h [1, 14]: 0.65 ± 0.16 %ID/g | tissue uptake at 0.5 h [1, 15]: 0.68 ± 0.03 %ID/g | tissue uptake at 5 h [1, 15]: 0.3 ± 0.06 %ID/g | tissue uptake at 2 h ([1]; pancreas, 5 MBq per mouse, 2 h p.i., n=3, read-out: Biodistribution, pancreas): 0.43 ± 0.04 %ID/g | tissue uptake at 5 h ([1]; pancreas, 5 MBq per mouse, n=3, read-out: Biodistribution, pancreas): 0.37 ± 0.07 %ID/g | tissue uptake at 0.5 h ([1]; pancreas, n=3, read-out: Biodistribution, pancreas): 0.73 ± 0.22 %ID/g | tissue uptake at 0.5 h [1, 16]: 1.97 ± 0.17 %ID/g | tissue uptake at 2 h ([1]; skin, 5 MBq per mouse, 2 h p.i., n=3, read-out: Biodistribution, Skin): 1.3 ± 0.13 %ID/g | tissue uptake at 5 h [1, 16]: 1.21 ± 0.34 %ID/g | tissue uptake at 0.5 h [1, 17]: 1.63 ± 0.21 %ID/g | tissue uptake at 2 h ([1]; spleen, 5 MBq per mouse, 2 h p.i., n=3, read-out: Biodistribution, Spleen): 1.58 ± 0.31 %ID/g | tissue uptake at 5 h [1, 17]: 0.95 ± 0.19 %ID/g | tissue uptake at 0.5 h [1, 18]: 1.69 ± 0.16 %ID/g | tissue uptake at 2 h ([1]; stomach, 5 MBq per mouse, 2 h p.i., n=3, read-out: Biodistribution, Stomach): 1.01 ± 0.32 %ID/g | tissue uptake at 5 h [1, 18]: 0.8 ± 0.03 %ID/g
SMILES: N=C(N)NCCC[C@@H]1NC(=O)[C@H](CCCCNC(=O)CCC(C(=O)O)N2CCN(CC(=O)O)CCN(CC(=O)O)CC2)NC(=O)[C@@H](Cc2ccc(O)cc2)NC(=O)[C@H](CC(=O)O)NC(=O)CNC1=O (some centres unmarked) [^44Sc-NODAGA-RGD, metal not drawn]
PET/CT distribution of radioactivity (in words) [2]: comparable to ^68Ga-NODAGA-RGD but showed somewhat more background activity in the abdominal tract
